Experimental data as given in patent publication US6835714B1, “Heterocyclic compounds, intermediates thereof and elastase inhibitors” (Dainippon Pharmaceutical Co., Ltd., priority 1999, dated 2004).
≈ marks a conversion by molar mass, not a printed value. Where two headings read alike, the source gives them in different places.

Legend:
[1] = Solubility in aqueous solvent; format: physicochemical; settings: 25° C.
Description: Experiment 4: Solubility in Aqueous Solvent The solubility in an aqueous solvent of the present compound was measured, and the results as shown in Table 4 were obtained. The pH value in Table 4 is a pH value of a solution of the present compound in distilled water.

[2] = tested on: pulmonary hemorrhage induced by human neutrophilic elastase; assay: Inhibitory activity on pulmonary hemorrhage induced by human neutrophilic elastase in hamsters; settings: hamster
Description: When human neutrophilic elastase is administered intratracheally to a hamster, the hemorrhage is induced in the lung. Hemoglobin is detected in the broncho-alveolar lavage fluid, which is obtained by washing the lung via bronchi at a fixed period after the elastase administration. In order to examine how much this hemorrhage can be inhibited by the present compound, this experiment was carried out by measuring the concentration of this hemoglobin.
Hamsters (male Syrian strain, 8-10 weeks old) were grouped into the following three groups (5 animals per group), and the following treatment was carried out on each group.
(A) Vehicle-Treated Control Group (Non-Treatment Group):
The result of the measurement was counted as A.
(B) Human Neutrophilic Elastase-Treated Group (Without the Present Compound):
Human neutrophilc elastase (25 units, manufactured by Elastin Products, Inc.) was dissolved in physiological saline solution (0.2 ml), and the solution thus obtained was administered to the hamsters at the bronchial tube to induce the pulmonary hemorrhage. One hour after the administration of elastase, the concentration of hemoglobin in the broncho-alveolar lavage fluid was measured in the same manner as in Group (A). The result of the measurement was counted as B.
(C) Human Neutrophilic Elastase-Treated Group (with the Present Compound):
A fixed amount of the present compound was administered to the hamsters in the form of a phosphate-buffered saline solution (pH 7.4) in the manner as described below. Then, human neutrophilic elastase was administered to the hamsters in the same manner as the above. One hour after the administration of elastase, the concentration of hemoglobin in the washing of the broncho-alveolar lavage was measured in the same manner as in Group (A). The result of the measurement was counted as C.
Administration Method of the Present Compound:
The administration of the present compound to the hamsters was carried out by two kinds of methods. One of them is a method of intravenous bolus-administration of the solution containing the present compound 5 minutes prior to the elastase administration. Another method is a method of intravenous infusion of the solution containing the present compound for a period of 70 minutes beginning at 10 minutes prior to the elastase administration.
Std:ddy mice = format: in vivo; settings: intravenous administration 300 mg/kg, 24 hours after administration
Source text: Experiment 3: Acute Toxicity Test in Mice
Twenty-four hours after the administration, the animals were observed if dead or alive.
*: Number of survived animals/number of tested animals

[3] = biological target: T1, Human neutrophilic elastase (Homo sapiens, UniProt P08246); assay: Human neutrophilic elastase inhibitory activity in vitro (fluorogenic substrate); format: biochemical; settings: 37° C., pH 7.5
T1 construct: purchased Sigma
T1 sequence (P08246 30-267): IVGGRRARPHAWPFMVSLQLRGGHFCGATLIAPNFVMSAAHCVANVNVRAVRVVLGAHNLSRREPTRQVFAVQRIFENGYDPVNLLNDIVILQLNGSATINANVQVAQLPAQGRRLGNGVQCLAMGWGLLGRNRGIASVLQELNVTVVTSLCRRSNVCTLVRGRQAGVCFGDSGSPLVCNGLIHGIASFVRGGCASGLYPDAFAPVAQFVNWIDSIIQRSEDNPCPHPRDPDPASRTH
Description: Experiment 1: Human Neutrophilic Elastase Inhibitory Activity
In the present experiment, the inhibitory activity of the present invention against human neutrophilic elastase was studied in vitro.
The resulting solution (210 μl) was mixed with a 10^−8-10^−5 M solution of the present compound (40 μl), and the mixture was pre-incubated at 37° C. for 6 minutes. To this solution, 4 mM succinyl-alanyl-prolyl-alanine 4-methyl-coumaryl-7-amide (substrate solution, Peptide Institute Inc.) (50 μl) and distilled water (100 μl) were added, and the mixture was further reacted at 37° C. for 20 minutes. The concentration of the 7-amino-4-methylcoumarine thus obtained was measured fluorimetrically by monitoring at an excitation wave length of 380 nm and a fluorescent wave length of 460 nm.
The above “Bri j-35” means polyoxyethylene (23) lauryl ether, and the “HEPES” means N-(2-hydroxyethyl)piperazine-N′-(2-ethane-sulfonic acid).
In the following equation, A means the intensity of fluorescence when a present compound is added, and B means the intensity of fluorescence when a present compound is not added.
Inhibitory Rate (%)=(1−A/B)×100

[4] = distilled water, pH of the solution given beside each value, read-out: Solubility, Water
[5] = aqueous buffer, 0.1 M phosphate buffer pH 7.4, read-out: Solubility, 0.1 M Phosphate buffer (pH 7.4)
[6] = intravenous bolus administration 3 mg/kg, 5 minutes prior to elastase
[7] = intravenous bolus administration 10 mg/kg, 5 minutes prior to elastase
[8] = intravenous infusion 1 mg/kg/hr for 70 minutes
[9] = intravenous infusion 3 mg/kg/hr for 70 minutes
[10] = intravenous infusion 10 mg/kg/hr for 70 minutes

Structure (SMILES)	solubility [1, 4]	solubility [1, 5]	Hemorrhage inhibitory rate ([2]; intravenous bolus administration 100 mg/kg (control dose row))	Hemorrhage inhibitory rate ([2]; intravenous infusion 10 mg/kg/hr (control dose row))	Hemorrhage inhibitory rate ([2]; intravenous infusion 100 mg/kg/hr (control dose row))	Livability (number of survived animals/number of tested animals) (Std:ddy mice)	IC50 [3]	Hemorrhage inhibitory rate [2, 6]	Hemorrhage inhibitory rate [2, 7]	Hemorrhage inhibitory rate [2, 8]	Hemorrhage inhibitory rate [2, 9]	Hemorrhage inhibitory rate [2, 10]
CC(C)(C)C(=O)Oc1ccc(S(=O)(=O)Nc2ccccc2C(=O)NCC(=O)O)cc1 [Control (a), reference compound]	0.012 mg/mL (≈ 0.0276 mM)	~20 mg/mL (≈ 46 mM)	74%	18%	60%							
CC(C)[C@H](NC(=O)CN1CCN(CC(=O)O)C1=O)C(=O)N1CCC[C@H]1C(=O)N[C@H](C(=O)C(F)(F)F)C(C)C [I-b-1, 2-(3-carboxymethyl-2-oxo-1-imidazolidinyl)acetyl-L-valyl-N-[(1S)-3,3,3-trifluoro-1-isopropyl-2-oxopropyl]-L-prolinamide]	> 1000 mg/mL	> 1000 mg/mL				6/6						
CC(C)[C@H](NC(=O)[C@@H]1CCCN1C(=O)[C@@H](NC(=O)Cn1ccc(=O)n(CC(=O)O)c1=O)C(C)C)C(=O)c1nc2ccccc2o1 [I-b-2, 2-(3-carboxymethyl-2,4-dioxo-1-pyrimidinyl)acetyl-L-valyl-N-[(1S)-2-(2-benzoxazolyl)-1-isopropyl-2-oxoethyl]-L-prolinamide]	5 mg/mL (≈ 8 mM)	> 100 mg/mL				6/6						
CC(C)[C@H](NC(=O)[C@@H]1CCCN1C(=O)[C@@H](NC(=O)Cn1ccc(=O)n(CC(=O)O)c1=O)C(C)C)C(=O)C(=O)NCc1ccccc1 [I-b-3, 2-(3-carboxymethyl-2,4-dioxo-1-pyrimidinyl)acetyl-L-valyl-N-[(1S)-3-benzylamino-1-isopropyl-2,3-dioxopropyl]-L-prolinamide]	8.7 mg/mL (≈ 13.6 mM)	> 100 mg/mL				6/6						
CC(C)[C@H](NC(=O)CN1C(=O)CN(CC(=O)O)C1=O)C(=O)N1CCC[C@H]1C(=O)N[C@H](C(=O)C(F)(F)F)C(C)C [I-b-7, 2-(3-carboxymethyl-2,5-dioxo-1-imidazolidinyl)acetyl-L-valyl-N-[(1S)-3,3,3-trifluoro-1-isopropyl-2-oxopropyl]-L-prolinamide]							0.082 µM	50%	64%	51%	53%	72%
CC(C)[C@H](NC(=O)[C@@H]1CCCN1C(=O)[C@@H](NC(=O)CC(=O)N1CCN(CC(=O)O)C(=O)C1)C(C)C)C(=O)c1nc2ccccc2o1 [I-b-10]							0.045 µM	32%	76%	52%	69%	92%
